According to PMC3731216, “Origin and Functional Diversification of an Amphibian Defense Peptide Arsenal” (PLoS Genetics, 2013):
In brackets after ≈: the same amount, converted by molar mass. Where a SMILES comes first, the peptide text is derived from it.

What was measured:
[1] = system: Escherichia coli (ATCC 25922); experiment: MIC assay in liquid medium (twofold dilutions) against E. coli; format: cell-based; conditions: lowest concentration in twofold dilutions with no growth; 5×10^5 CFU/ml, Müller-Hinton broth, 37°C, 18 hours, read by eye; duplicate or triplicate, min–max if variable
Procedure: (§1) Seventeen predicted and recovered peptides were de novo synthesized using solid-phase technology by CASLO Laboratory ApS (Lyngby, Denmark) and delivered as HPLC-purified (>95%) trifluoracetate (TFA) salts. The peptide salts were stored as 5.12 mM stock solutions in 0.01% (V/V) acetic acid/0.2% (m/V) BSA. Peptides were tested against Escherichia coli (ATCC 25922) and Pseudomonas aeruginosa (ATCC 15692), Staphylococcus aureus (ATCC 25923), Micrococcus luteus, Saccharomyces cerevisiae, a protozoan parasite (Trypanosoma brucei brucei), mouse (Mus musculus) red blood cells and mouse spleen tissue cultures (containing 50–60% B-cells, ∼25–30% T-cells, and 5% myeloid cells). All assays were performed in duplicate or triplicate.
(§2) Activity against the bacteria and fungus was measured by assessing the lowest peptide concentration in a series of twofold dilutions at which no growth was detected (known as the minimum inhibitory concentration, MIC). Bacterial and yeast cultures (5×10^5 colony forming units/ml) were prepared in Müller-Hinton (MH) broth and Luria-Bertani (LB) broth respectively and transferred to serial dilutions of peptides ranging from 512 or 256 µM down to 1 or 0.5 µM in 96-well polypropylene plates. After incubation at 37°C (bacteria) or 30°C (S. cerevisiae) for 18 hours, growth of the cultures was checked by eye. In addition to MIC, we determined minimum microbicidal concentrations (MMC) by inoculating samples of the MIC assays on agar plates lacking peptides and checking for overnight growth. In all cases, MIC and MMC were identical.

[2] = system: Pseudomonas aeruginosa (ATCC 15692); experiment: MIC assay in liquid medium (twofold dilutions) against P. aeruginosa; format: cell-based; conditions: lowest concentration in twofold dilutions with no growth; 5×10^5 CFU/ml, Müller-Hinton broth, 37°C, 18 hours, read by eye; duplicate or triplicate, min–max if variable
Procedure: as §1, §2

[3] = system: Staphylococcus aureus (ATCC 25923); experiment: MIC assay in liquid medium (twofold dilutions) against S. aureus; format: cell-based; conditions: lowest concentration in twofold dilutions with no growth; 5×10^5 CFU/ml, Müller-Hinton broth, 37°C, 18 hours, read by eye; duplicate or triplicate, min–max if variable
Procedure: as §1, §2

[4] = system: Micrococcus luteus; experiment: MIC assay in liquid medium (twofold dilutions) against M. luteus; format: cell-based; conditions: lowest concentration in twofold dilutions with no growth; 5×10^5 CFU/ml, Müller-Hinton broth, 37°C, 18 hours, read by eye; duplicate or triplicate, min–max if variable
Procedure: as §1, §2

[5] = system: Saccharomyces cerevisiae; experiment: MIC assay in liquid medium (twofold dilutions) against S. cerevisiae; format: cell-based; conditions: lowest concentration in twofold dilutions with no growth; 5×10^5 CFU/ml, Luria-Bertani broth, 30°C, 18 hours, read by eye; duplicate or triplicate, min–max if variable
Procedure: as §1, §2

[6] = system: mouse red blood cells; experiment: Hemolysis of mouse red blood cells (HC50); format: cell-based; conditions: lowest concentration causing at least 50% hemolysis; mouse blood diluted 1/100 in RPMI, 37°C, 30 minutes, OD 550 nm; 100% = 1% Tween-20
Procedure: as §1
Activity against mouse red blood cells was examined by assessing the lowest peptide concentration in a series of twofold dilutions causing at least 50% hemolysis (HC50). Briefly, heparinized blood was obtained by cardiac puncture of mice euthanized via CO2. The blood was diluted 1/100 in RPMI and added to polypropylene 96-well plates containing the serial peptide dilutions to obtain total volumes of 100 µl. The plates were incubated at 37°C in a humidified atmosphere for 30 minutes and centrifuged at 1400 rpm for 2 minutes to pellet intact red blood cells allowing visual observation of hemolysis. Supernatants were subsequently transferred to 96-well flat-bottom plates to allow spectrophotometry using an ELISA reader (OD measured at 550 nm). The percentage of hemolyis for each peptide concentration was calculated as 100×(ODobs−OD0%)/(OD100%−OD0%), where ODobs is the OD measured for the peptide concentration, OD0% is the average OD in the absence of peptides (0% hemolysis), and OD100% is the average OD in the presence of 1% Tween-20 (100% hemolysis).

[7] = system: T-lymphocytes (naive C57Black/6 splenocytes); experiment: Inhibition of Concanavalin A-induced T-cell proliferation in spleen cell cultures; format: cell-based, Mus musculus; conditions: lowest concentration causing at least 50% inhibition of Concanavalin A-induced T-cell proliferation; 2×10^5 splenocytes, 24 h + 18 h [3H]thymidine, 37°C; min–max if variable
Procedure: as §1
Activity against T-lymphocytes was assessed as the lowest peptide concentration in a series of twofold dilutions causing at least 50% inhibition of Concanavalin A-induced T-cell proliferation (IC50). Solutions containin 2×10^5 naive C57Black/6 splenocytes in the presence of 2.5 µg Concanavalin A were added to polypropylene 96-well plates containing the serial peptide dilutions to obtain total volumes of 100 µl. After incubation for 24 hours at 37°C in a humidified atmosphere, the cells were pulsed with [^3H]thymidine and incubated for an additional 18 hours. The amount of [^3H]thymidine incorporation was assessed by a β-counter as a measure of cell proliferation and the percentage of proliferation inhibition for each peptide concentration was calculated as 100×(1−(Tobs/T100%)), where Tobs is the [^3H]thymidine level measured for the peptide concentration, and T100% is the [^3H]thymidine level measured for Concanavalin-A-induced cell proliferation in the absence of peptide (representing 100% proliferation).

SMILES | MIC E. coli [1] | MIC P. aeruginosa [2] | MIC S. aureus [3] | MIC M. luteus [4] | MIC S. cerevisiae [5] | HC50 Erythrocytes [6] | IC50 [7]
CC[C@H](C)[C@H](NC(=O)[C@H](CC(C)C)NC(=O)[C@H](CCCCN)NC(=O)[C@H](CO)NC(=O)[C@H](C)NC(=O)CNC(=O)[C@H](CCCCN)NC(=O)[C@H](CC(C)C)NC(=O)[C@H](C)NC(=O)[C@H](CCSC)NC(=O)[C@H](CCCCN)NC(=O)[C@H](C)NC(=O)[C@H](Cc1ccccc1)NC(=O)[C@@H](NC(=O)CNC(=O)[C@H](Cc1ccccc1)NC(=O)[C@H](CC(C)C)NC(=O)[C@@H](N)CO)[C@@H](C)O)C(=O)N1CCC[C@H]1C(=O)N[C@@H](Cc1c[nH]cn1)C(=O)N[C@@H](CC(C)C)C(=O)N[C@@H](CC(C)C)C(=O)N1CCC[C@H]1C(=O)N[C@@H](CO)C(=O)N[C@@H](CCCNC(=N)N)C(=O)N[C@@H](CCC(N)=O)C(=O)N[C@@H](CCC(N)=O)C(=O)O [CPF-St4] (H-SLFGTFAKMALKGASKLIPHLLPSRQQ-OH) | 2 to 4 µM | 4 to 8 µM | 1 µM | 0,5 µM | 16 µM | 64 µM | 2 µM
CC[C@H](C)[C@H](NC(=O)[C@H](CC(C)C)NC(=O)[C@H](CCCCN)NC(=O)[C@H](CO)NC(=O)[C@H](C)NC(=O)CNC(=O)[C@H](CCCCN)NC(=O)[C@H](CC(C)C)NC(=O)[C@H](C)NC(=O)[C@H](C)NC(=O)[C@H](CCCCN)NC(=O)[C@H](C)NC(=O)[C@H](CC(C)C)NC(=O)[C@H](CC(C)C)NC(=O)CNC(=O)[C@H](Cc1ccccc1)NC(=O)[C@@H](NC(=O)CN)C(C)C)C(=O)N1CCC[C@H]1C(=O)N[C@@H](Cc1c[nH]cn1)C(=O)N[C@@H](CC(C)C)C(=O)N[C@@H](CC(C)C)C(=O)N1CCC[C@H]1C(=O)N[C@@H](CO)C(=O)N[C@@H](CCCNC(=N)N)C(=O)N[C@@H](CCC(N)=O)C(=O)N[C@@H](CCC(N)=O)C(=O)O [CPF-St5] (H-GVFGLLAKAALKGASKLIPHLLPSRQQ-OH) | 1 µM (≈ 2.81 µg/mL) | 4 to 8 µM | 1 µM (≈ 2.81 µg/mL) | 0,5 µM | 16 µM (≈ 45 µg/mL) | 64 µM | 8 µM
CC[C@H](C)[C@H](NC(=O)[C@@H](N)Cc1ccccc1)C(=O)NCC(=O)N[C@@H](C)C(=O)N[C@@H](CC(C)C)C(=O)N[C@@H](CC(C)C)C(=O)N[C@@H](CCCNC(=N)N)C(=O)N1CCC[C@H]1C(=O)N[C@@H](C)C(=O)N[C@@H](CC(C)C)C(=O)N[C@@H](CCCCN)C(=O)N[C@@H](CC(C)C)C(=O)N[C@@H](CC(C)C)C(=O)N[C@@H](C)C(=O)NCC(=O)N[C@@H](CCCCN)C(=O)O [PFQa-St2] (H-FIGALLRPALKLLAGK-OH) | 32 µM (≈ 53.8 µg/mL) | 256 µM (≈ 430 µg/mL) | 16 µM (≈ 26.9 µg/mL) | 4 µM (≈ 6.72 µg/mL) | 128 µM (≈ 215 µg/mL) | 256 µM | 128 µM
CC[C@H](C)[C@H](NC(=O)[C@H](C)NC(=O)[C@H](CCC(=O)O)NC(=O)[C@H](CC(C)C)NC(=O)CNC(=O)CNC(=O)[C@H](CCCCN)NC(=O)[C@H](C)NC(=O)[C@H](Cc1ccccc1)NC(=O)[C@H](CCCCN)NC(=O)[C@H](CCCCN)NC(=O)[C@H](CC(C)C)NC(=O)CNC(=O)CNC(=O)[C@H](CC(C)C)NC(=O)[C@@H](NC(=O)[C@@H](NC(=O)[C@H](CO)NC(=O)[C@H](Cc1c[nH]c2ccccc12)NC(=O)[C@@H](NC(=O)CN)C(C)C)[C@@H](C)O)C(C)C)C(=O)N[C@H](C(=O)N[C@@H](CC(N)=O)C(=O)N1CCC[C@H]1C(=O)N[C@@H](CCCCN)C(=O)O)C(C)C [XPF-St1] (H-GVWSTVLGGLKKFAKGGLEAIVNPK-OH) | 4 µM (≈ 10.3 µg/mL) | 32 µM (≈ 82.2 µg/mL) | 32 to 64 µM | 0,5 µM | 32 µM (≈ 82.2 µg/mL) | 128 µM | 16 µM
CC[C@H](C)[C@H](NC(=O)[C@H](CO)NC(=O)[C@H](CO)NC(=O)[C@H](C)NC(=O)[C@H](Cc1c[nH]c2ccccc12)NC(=O)CN)C(=O)NCC(=O)N[C@@H](CO)C(=O)N[C@H](C(=O)N[C@@H](CC(C)C)C(=O)NCC(=O)N[C@@H](CCCCN)C(=O)N[C@@H](Cc1ccccc1)C(=O)N[C@@H](C)C(=O)N[C@@H](CCCCN)C(=O)NCC(=O)NCC(=O)N[C@@H](C)C(=O)N[C@@H](CCC(N)=O)C(=O)N[C@@H](C)C(=O)N[C@@H](Cc1ccccc1)C(=O)N[C@@H](CC(C)C)C(=O)N[C@@H](CCC(N)=O)C(=O)N1CCC[C@H]1C(=O)N[C@@H](CCCCN)C(=O)O)[C@@H](C)CC [XPF-St4] (H-GWASSIGSILGKFAKGGAQAFLQPK-OH) | 32 µM (≈ 80.6 µg/mL) | 128 µM (≈ 323 µg/mL) | >256 µM | 0,5 µM | 64 µM (≈ 161 µg/mL) | 256 µM | 64 µM
CC[C@H](C)[C@H](NC(=O)[C@@H]1CCCN1C(=O)[C@H](CCC(N)=O)NC(=O)[C@@H](NC(=O)[C@H](CC(C)C)NC(=O)[C@H](CCCCN)NC(=O)[C@@H]1CCCN1C(=O)CNC(=O)[C@H](CC(C)C)NC(=O)[C@H](CCC(N)=O)NC(=O)[C@H](CCSC)NC(=O)[C@H](C)NC(=O)[C@H](CCCCN)NC(=O)[C@H](CCCNC(=N)N)NC(=O)[C@H](CC(C)C)NC(=O)[C@@H](NC(=O)[C@H](CCCCN)NC(=O)CNC(=O)[C@H](Cc1ccccc1)NC(=O)[C@@H](NC(=O)[C@@H]1CCCN1C(=O)[C@H](CC(C)C)NC(=O)[C@H](Cc1c[nH]c2ccccc12)NC(=O)CN)[C@@H](C)O)[C@@H](C)CC)[C@@H](C)CC)C(=O)O [XPF-St5] (H-GWLPTFGKILRKAMQLGPKLIQPI-OH) | 1 to 2 µM | 8 to 16 µM | 16 µM (≈ 43.3 µg/mL) | 1 µM (≈ 2.71 µg/mL) | 32 µM (≈ 86.6 µg/mL) | 128 µM | 8 to 16 µM
